Laboratory results from US7919493B2, “Anititumoral ecteinascidin derivatives” (Pharma Mar, S.A., priority 2001, dated 2011).
Converted amounts (≈) assume the structure as drawn.

What was measured:
Assay type in all cases: cell-based
DU-145 = test: Cytotoxic activity screening, DU-145 cells; settings: for IC50: Homo sapiens, DU-145, DU-145 cells
Method: [The source words this procedure for another cell line and reports this cell line under the same test.] (§1) Cell Cultures. Cells were maintained in logarithmic phase of growth in Eagle's Minimum Essential Medium, with Earle's Balanced Salts, with 2.0 mM L-glutamine, with non-essential amino acids, without sodium bicarbonate (EMEM/neaa); supplemented with 10% Fetal Calf Serum (FCS), 10^−2 M sodium bicarbonate and 0.1 g/l penicillin-G+streptomycin sulfate.
(§2) A simple screening procedure has been carried out to determine and compare the antitumour activity of these compounds, using an adapted form of the method described by Bergeron et al (1984). The tumour cell line employed have been P-388 (suspension culture of a lymphoid neoplasm from DBA/2 mouse), A-549 (monolayer culture of a human lung carcinoma), HT-29 (monolayer culture of a human colon carcinoma) and MEL-28 (monolayer culture of a human melanoma).
Examples of biological activities of the compounds described in the present application are in Table IV (IC50 (ng/mL)) on the following pages.

[1] = tested on: A-549 (monolayer culture of a human lung carcinoma); test: Cytotoxic activity screening, A-549 cells; settings: three days of incubation, Crystal Violet, approximate IC50; for IC50: Homo sapiens, A549, 72 h
Method: as §1
(§3) A separate set of cultures without drug was seeded as control growth to ensure that cells remained in exponential phase of growth. All determinations were carried out in duplicate. After three days of incubation at 37° C., 10% CO2 in a 98% humid atmosphere, the wells were stained with 0.1% Crystal Violet. An approximately IC50 was determined by comparing the growth in wells with drug to the growth in wells control.

[2] = tested on: HT-29 (monolayer culture of a human colon carcinoma); test: Cytotoxic activity screening, HT-29 cells; settings: three days of incubation, Crystal Violet, approximate IC50; for IC50: Homo sapiens, HT-29, 72 h
Method: as §1, §3

[3] = tested on: P-388 (suspension culture of a lymphoid neoplasm from DBA/2 mouse); test: Cytotoxic activity screening, P-388 cells; settings: three days of incubation, approximate IC50 vs control growth; for IC50: Mus musculus, P388, 72 h
Method: as §1, §2
P-388 cell were seeded into 16 mm wells at 1×10^4 cells per well in 1 ml aliquots of MEM 5FCS containing the indicated concentration of drug. A separate set of cultures without drug was seeded as control growth to ensure that cells remained in exponential phase of growth. All determinations were carried out in duplicate.

[4] = tested on: MEL-28 (monolayer culture of a human melanoma); test: Cytotoxic activity screening, MEL-28 cells; settings: three days of incubation, Crystal Violet, approximate IC50; for IC50: Homo sapiens, SK-MEL-28, 72 h
Method: as §1, §2
as §3, with “A-549, HT-29 and MEL-28 were seeded into 16 mm wells at 2×10^4 cells per well in 1 ml aliquots of MEM 10FCS containing the indicated concentration of drug. A separate” for “A separate”

Row | Compound | IC50 (DU-145) [ng/mL] | IC50 [1] [ng/mL] | IC50 [2] [ng/mL] | IC50 [3] [ng/mL] | IC50 [4] [ng/mL] | IC50 DU-145 (DU-145; DU-145 cells) | IC50 A-549 [1] | IC50 HT-29 [2] | IC50 P-388 [3] | IC50 MEL-28 [4]
1 | COc1c(C)cc2c(c1O)[C@@H]1C3[C@@H]4SC[C@H](NC(=O)C(NC(=O)C(C)NC(=O)/C=C/c5ccccc5)C(C)C)C(=O)OC[C@@H](c5c6c(c(C)c(OC(C)=O)c54)OCO6)N3[C@@H](C#N)[C@H](C2)N1C (stereo partly shown) [Compound 3u] | 1 (≈ 1.08 nM) | 5 (≈ 5.42 nM) | 1 (≈ 1.08 nM) | 5 (≈ 5.42 nM) | 1 (≈ 1.08 nM) |  |  |  |  | 
2 | COc1c(C)cc2c(c1O)[C@@H]1C3[C@@H]4SC[C@H](NC(=O)C(NC(C)=O)C(C)C)C(=O)OC[C@@H](c5c6c(c(C)c(OC(C)=O)c54)OCO6)N3[C@@H](C#N)[C@H](C2)N1C (stereo partly shown) [Compound 3q] | 1 (≈ 1.31 nM) | 1 (≈ 1.31 nM) | 1 (≈ 1.31 nM) | 1 (≈ 1.31 nM) | 1 (≈ 1.31 nM) |  |  |  |  | 
3 | COc1c(C)cc2c(c1O)[C@@H]1C3[C@@H]4SC[C@H](N5C(=O)c6ccccc6C5=O)C(=O)OC[C@@H](c5c6c(c(C)c(OC(C)=O)c54)OCO6)N3[C@@H](C#N)[C@H](C2)N1C (stereo partly shown) [Compound 3j] | 5 (≈ 6.64 nM) | 5 (≈ 6.64 nM) | 5 (≈ 6.64 nM) | 5 (≈ 6.64 nM) | 5 (≈ 6.64 nM) |  |  |  |  | 
4 | COc1c(C)cc2c(c1O)[C@@H]1C3[C@@H]4SC[C@H](NC(=O)C(F)(F)F)C(=O)OC[C@@H](c5c6c(c(C)c(OC(C)=O)c54)OCO6)N3[C@@H](O)[C@H](C2)N1C (stereo in doubt) [Compound 4b] | 0.5 (≈ 0.705 nM) | 0.5 (≈ 0.705 nM) | 0.5 (≈ 0.705 nM) | 0.5 (≈ 0.705 nM) | 0.5 (≈ 0.705 nM) |  |  |  |  | 
5 | COc1c(C)cc2c(c1O)[C@@H]1C3[C@@H]4SC[C@H](NC(=O)C(NC(=O)/C=C/c5ccccc5)C(C)C)C(=O)OC[C@@H](c5c6c(c(C)c(OC(C)=O)c54)OCO6)N3[C@@H](C#N)[C@H](C2)N1C (stereo partly shown) [Compound 3r] | 1 (≈ 1.17 nM) | 1 (≈ 1.17 nM) | 1 (≈ 1.17 nM) | 1 (≈ 1.17 nM) | 1 (≈ 1.17 nM) |  |  |  |  | 
6 | COc1c(C)cc2c(c1O)[C@@H]1C3[C@@H]4SC[C@H](NC(=O)C(NC(=O)/C=C/c5ccccc5)C(C)C)C(=O)OC[C@@H](c5c6c(c(C)c(OC(C)=O)c54)OCO6)N3[C@@H](O)[C@H](C2)N1C (stereo partly shown) [Compound 4r] | 0.5 (≈ 0.593 nM) | 0.5 (≈ 0.593 nM) | 0.5 (≈ 0.593 nM) | 0.5 (≈ 0.593 nM) | 0.5 (≈ 0.593 nM) |  |  |  |  | 
7 | CCCCCCCCCCCCCCCC(=O)N[C@H]1CS[C@@H]2c3c(OC(C)=O)c(C)c4c(c3[C@H](COC1=O)N1C2[C@H]2c3c(cc(C)c(OC)c3O)C[C@@H]([C@@H]1C#N)N2C)OCO4 (stereo partly shown) [Compound 3f] |  |  |  |  |  | >1-10^3 ng/mL | >1-10^3 ng/mL | >1-10^3 ng/mL | >1-10^3 ng/mL | >1-10^3 ng/mL
8 | COc1c(C)cc2c(c1O)[C@@H]1C3[C@@H]4SC[C@H](NC(=O)c5ccccc5)C(=O)OC[C@@H](c5c6c(c(C)c(OC(C)=O)c54)OCO6)N3[C@@H](C#N)[C@H](C2)N1C (stereo partly shown) [Compound 3g] | 0.1 (≈ 0.138 nM) | 0.1 (≈ 0.138 nM) | 0.1 (≈ 0.138 nM) | 0.1 (≈ 0.138 nM) | 0.1 (≈ 0.138 nM) |  |  |  |  | 
9 | CCCC(=O)O[C@H]1CS[C@@H]2c3c(OC(C)=O)c(C)c4c(c3[C@H](COC1=O)N1C2[C@H]2c3c(cc(C)c(OC)c3O)C[C@@H]([C@@H]1O)N2C)OCO4 (stereo partly shown) [Compound 21c] | 1 (≈ 1.46 nM) | 1 (≈ 1.46 nM) | 1 (≈ 1.46 nM) | 1 (≈ 1.46 nM) | 1 (≈ 1.46 nM) |  |  |  |  | 
10 | CCCC(=O)O[C@H]1CS[C@@H]2c3c(OC(C)=O)c(C)c4c(c3[C@H](COC1=O)N1C2[C@H]2c3c(cc(C)c(OC)c3O)C[C@@H]([C@@H]1C#N)N2C)OCO4 (stereo partly shown) [Compound 17c] | 1 (≈ 1.44 nM) | 1 (≈ 1.44 nM) | 1 (≈ 1.44 nM) | 1 (≈ 1.44 nM) | 1 (≈ 1.44 nM) |  |  |  |  | 
11 | COc1c(C)cc2c(c1O)[C@@H]1C3[C@@H]4SC[C@H](NC(=O)/C=C/c5ccccc5)C(=O)OC[C@@H](c5c6c(c(C)c(OC(C)=O)c54)OCO6)N3[C@@H](C#N)[C@H](C2)N1C (stereo partly shown) [Compound 3h] | 0.5 (≈ 0.664 nM) | 0.5 (≈ 0.664 nM) | 0.5 (≈ 0.664 nM) | 0.5 (≈ 0.664 nM) | 0.5 (≈ 0.664 nM) |  |  |  |  | 
